Test results reported in ChEMBL document CHEMBL1156829 (Proc Natl Acad Sci U S A, 2008).
“And” between values parts separate entries of the source, which are not always exact repeats. Identical values can stand only once.

Experiments:
Plasmodium falciparum [1] = assay: NOVARTIS: Inhibition of Plasmodium falciparum W2 (drug-resistant) proliferation in erythrocyte-based infection assay; type: functional, organism-based; conditions: read-out: EC50
Plasmodium falciparum [2] = assay: NOVARTIS: Inhibition of Plasmodium falciparum 3D7 (drug-susceptible) proliferation in erythrocyte-based infection assay; type: functional, organism-based
[3] = NOVARTIS: Cytotoxicity against human hepatocellular carcinoma cell line (Huh7); type: toxicity, cell-based, Huh-7; conditions: Huh7 cells (hepatocellular carcinoma cell line)

SMILES | EC50 (Plasmodium falciparum [1]; Plasmodium falciparum, W2) [nM] | EC50 (Plasmodium falciparum [2]; Plasmodium falciparum, 3D7) [nM] | CC50 [3] [nM] | EC50 (Plasmodium falciparum [1]) | EC50 (Plasmodium falciparum [2])
C=C[C@H]1C[N@]2CC[C@H]1C[C@H]2[C@H](O)c1ccnc2ccc(OC)cc12 | 793 | 518 |  |  | 
CN[C@@H]1CC2O[C@@](C)([C@@H]1OC)n1c3ccccc3c3c4c(c5c6ccccc6n2c5c31)C(=O)NC4 |  |  | 355 |  | 
CCc1nc(N)nc(N)c1-c1ccccc1 | > 1250 | 1550 |  |  | 
CN(C)c1ccc(/C=C2/SC(=Nc3ccccc3Cl)NC2=O)cc1 |  | > 1250 |  | > 512 nM and 1410 nM | 713 nM
Cc1ccc(Nc2nc(-c3ccccn3)cs2)cc1 | 368 | 407 |  |  | 
CCOC(=O)c1c[nH]c2c(ccc3ccccc32)c1=O |  |  | > 100000 |  | 
COc1cccc(NC(=O)C2C3C=CC4(O3)C2C(=O)N(CC2COc3ccccc3O2)C4C(=O)NC2CCCCC2)c1 (stereo unspecified) | > 53.7 | > 1250 |  |  | 
CCOC(=O)CC(C)(O)P(=O)(OC)OC (stereo unspecified) | > 1250 | > 1010 |  |  | 
CCCCNc1nc(NC(C)(C)C)nc(NC(C)(C)C)n1 | 804 | 2160 |  |  | 
CC(C)CN1C(=O)c2ccccc2C(C(=O)Nc2cccc(Cl)c2)C1c1cccs1 (stereo unspecified) |  |  | 93600 |  | 
CNc1nc(NN=Cc2cc([N+](=O)[O-])ccc2O)nc(Nc2cccc(C(F)(F)F)c2)n1 | > 1660 | 1860 |  |  | 
CN(C=Cc1sc2ccc3ccccc3c2[n+]1C)c1ccccc1 |  |  |  | 909 nM | 553 nM
CC1=CC(=O)OC[C@]23CCC(C)=C[C@H]2O[C@@H]2C[C@@H](OC(=O)C=CC=CC(=O)OCC1)[C@@]3(C)[C@]21CO1 |  |  | 206 | 9.18 nM | 3.91 nM
O=[N+]([O-])c1ccc(C2OC3C(c4ccc(Cl)cc4)=Nc4ccccc4N3C2c2ccc([N+](=O)[O-])cc2)cc1 (stereo unspecified) | 709 | > 1250 |  |  | 
O=C(CCCn1c2ccccc2c(=O)c2ccccc21)NCc1ccc(F)cc1 | 1100 | 1110 |  |  | 
COc1ccc(C2C(C(=O)c3ccc(C)cc3)=C(O)C(=O)N2CCN2CCOCC2)c(OC)c1 (stereo unspecified) | > 1250 | > 50 |  |  | 
Cc1c(Br)c([N+](=O)[O-])nn1CC(=O)NC(C)c1ccccc1 (stereo unspecified) | > 948 | > 1250 |  |  | 
CCC(C)NC(=O)c1nn(-c2ccc(Cl)cc2)c(=O)c2ccccc12 (stereo unspecified) | 696 | 285 |  |  | 
Cc1cc2cc3c(cc2c(C)n1)c1ccccc1n3C | 1100 | 1260 |  |  | 
CN(C)c1ccc(/C=C2\SC(=N)N(c3nccs3)C2=O)cc1 | 307 | 223 |  |  | 
CC(=O)N1CCc2cc(Br)cc(S(=O)(=O)N(CC(C)C)CC(C)C)c21 | 270 | 1220 |  |  | 

SMILES | EC50 (Plasmodium falciparum [1]; Plasmodium falciparum, W2) [nM] | EC50 (Plasmodium falciparum [2]; Plasmodium falciparum, 3D7) [nM] | CC50 [3] [nM] | EC50 (Plasmodium falciparum [1]) | EC50 (Plasmodium falciparum [2])
CCN1C=Cc2ccccc2/C1=C\c1ccc2ccccc2[n+]1CC | 294 | 670 |  |  | 
CCCCN(CCCC)c1nc(=O)cc(-c2ccc(Cl)cc2)o1 | 636 | 810 |  |  | 
CCCCOc1ccc(/C=C(/C#N)c2nc(-c3ccc(-c4ccccc4)cc3)cs2)cc1 | > 774 | > 1250 |  |  | 
Oc1ccccc1CNC(Cc1ccccc1)C(O)(c1ccccc1)c1ccccc1 (stereo unspecified) | 27.6 | 203 |  |  | 
CC(C)CN1C(=O)c2ccccc2C(C(=O)Nc2ccccc2F)C1c1cccs1 (stereo unspecified) |  |  | > 100000 |  | 
O=C(Cn1ccc(=NCc2ccccc2)cc1)c1cccc(Br)c1 | > 110 | > 1390 |  |  | 
CCCOC(=O)c1c(NC(=O)c2c(I)cnn2C)sc2c1CCCCC2 | > 1250 | 1240 |  |  | 
CC(C)CC[n+]1ccccc1C=Cc1ccc(N(C)C)cc1 |  |  |  | 548 nM | 747 nM
O=C(NC(=S)Nc1ccc(-c2nc3ccccc3s2)cc1)c1ccc(S(=O)(=O)N2CCCC2)cc1 | > 1590 | 2050 |  |  | 
O=C1/C(=C/c2ccccc2)SC(=Nc2ccccc2)N1C1CCCCC1 | > 1250 | 1200 |  |  | 
CCC(=O)Nc1ccc(C(=O)NN=Cc2cc([N+](=O)[O-])ccc2O)cc1 | 1540 | > 1250 |  |  | 
CN(/C=C/C1=[N+](C)c2ccc(Cl)cc2C1(C)C)c1ccccc1 |  |  | > 92800 | 900 nM and 2040 nM | 1360 nM and 455 nM
CC12C(=O)N(c3cccc(C(=O)O)c3)C(=O)C1C1c3ccccc3C2c2ccccc21 (stereo unspecified) | > 1250 | > 652 |  |  | 
COc1ccc(/C=C2\SC(=S)N(CC(=O)NNC(=O)c3ccncc3)C2=O)cc1 | 2280 | > 1520 |  |  | 
CCN1/C(=C/c2sc3ccc(-c4ccccc4)cc3[n+]2CCO)C=Cc2cc(OC)ccc21 | 945 | 487 |  |  | 
CC[n+]1ccc(C=Cc2ccc(N(C)C)cc2)cc1 |  | 681 |  | 724 nM | 
N#Cc1c2c(c(N3CCN(C(c4ccccc4)c4ccccc4)CC3)n3c1nc1ccccc13)CCC2 | 2270 | > 1250 |  |  | 
O=C(/C=C/c1ccccc1)Nc1ccc(C(=O)OC[C@@H]2CCCN3CCCC[C@H]23)cc1 | > 1250 | 1440 |  |  | 
Cc1ccc(N=C(Nc2ccc(C)cc2)Nc2ccccc2O)cc1 | 231 | 1530 |  |  | 
COc1ccc(-c2csc(NC(=O)COc3ccccc3Cl)n2)cc1Br | 286 | 1640 |  |  | 
